According to US10654884B2 (Vitae Pharmaceuticals, Inc., priority 2014, dated 2020):

Tests used:
[1] = target: T1, human CD73 (Homo sapiens, UniProt P21589); assay: Inhibition of 5′-Nucleotidase Activity of CD73 (Assay 1); format: biochemical; settings: human CD73 4 ng/ml, 50 μM CMP, 20 min at RT, malachite green readout; read-out: Assay 1: IC50, inhibition of 5′-nucleotidase activity of CD73
T1 construct: purchased R&D Systems 5795-EN-010
T1 sequence (P21589 27-549): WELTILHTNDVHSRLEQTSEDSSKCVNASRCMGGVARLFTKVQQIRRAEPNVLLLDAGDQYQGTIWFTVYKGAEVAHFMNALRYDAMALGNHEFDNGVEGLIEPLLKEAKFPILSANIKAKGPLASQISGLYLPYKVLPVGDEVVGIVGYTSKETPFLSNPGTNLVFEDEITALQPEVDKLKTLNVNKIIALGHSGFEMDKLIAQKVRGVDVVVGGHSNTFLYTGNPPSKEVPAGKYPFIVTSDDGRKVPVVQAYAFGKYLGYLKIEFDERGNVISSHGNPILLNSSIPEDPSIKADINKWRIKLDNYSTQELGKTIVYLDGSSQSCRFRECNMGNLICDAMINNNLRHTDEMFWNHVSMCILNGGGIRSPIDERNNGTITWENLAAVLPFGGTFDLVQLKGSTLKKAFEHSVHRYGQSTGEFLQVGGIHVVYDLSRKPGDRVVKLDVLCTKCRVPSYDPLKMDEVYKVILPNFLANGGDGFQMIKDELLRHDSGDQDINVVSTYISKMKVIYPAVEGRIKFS
Summary of the method: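 Human CD73 (4 ng/ml final) was incubated with 50 μM CMP in 25 mM Tris-HCl pH 7.4, 0.005% Brij-35 for 20 min at RT. Reactions were stopped with malachite green reagent and absorbance was read at 620 nm. IC50 came from a 4-parameter logistic fit.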

[2] = target: T2, CD73 on U138 neuroglioma cells (Homo sapiens, UniProt P21589); assay: Inhibition of Ecto-5′-Nucleotidase Activity in U138 Neuroglioma Cells (Assay 2); format: cell-based; settings: 50 μM CMP, 2 hr at 37° C., malachite green readout, read-out: Assay 2: IC50, inhibition of ecto-5′-nucleotidase activity in U138 neuroglioma cells
T2 construct: U138 neuroglioma cells, which express CD73 on their surface; endogenous in cells; host or cells: U138 neuroglioma cells (ATCC)
T2 sequence (P21589 27-549): T1 sequence (P21589 27-549)
Summary of the method: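 Whole-cell CD73 activity in U138 human neuroglioma cells seeded the day before, washed free of phosphate, then given test compound dilutions with 50 μM CMP in HEPES-buffered saline, pH 7.4, DMSO ≤0.1%. Incubated 2 hr at 37° C; released inorganic phosphate in supernatant measured by malachite green; IC50 by nonlinear regression.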

IC50 [1] [nM]	IC50 [2] [nM]	SMILES
100 to 1000	> 1000	O=C(O)C(OC[C@H]1O[C@@H](n2cnc3c(N[C@H]4CCOC4)nc(Cl)nc32)[C@H](O)[C@@H]1O)C(=O)O [Example 83, 2-(((2R,3S,4R,5R)-5-(2-chloro-6-(((S)-tetrahydrofuran-3-yl)amino)-9H-purin-9-yl)-3,4-dihydroxytetrahydrofuran-2-yl)methoxy)malonic acid]
< 100	< 100	Nc1nc(Cl)nc2c1ncn2[C@@H]1O[C@H](COC(Cc2c(F)cccc2F)(C(=O)O)C(=O)O)[C@@H](O)[C@H]1O [Example 84, 2-(((2R,3S,4R,5R)-5-(6-amino-2-chloro-9H-purin-9-yl)-3,4-dihydroxytetrahydrofuran-2-yl)methoxy)-2-(2,6-difluorobenzyl)malonic acid]
< 100	< 100	N#Cc1ccccc1CC(OC[C@H]1O[C@@H](n2cnc3c(N)nc(Cl)nc32)[C@H](O)[C@@H]1O)(C(=O)O)C(=O)O [Example 85]
< 100	100 to 1000	CS(=O)(=O)c1ccccc1CC(OC[C@H]1O[C@@H](n2cnc3c(N)nc(Cl)nc32)[C@H](O)[C@@H]1O)(C(=O)O)C(=O)O [Example 86, 2-(((2R,3S,4R,5R)-5-(6-amino-2-chloro-9H-purin-9-yl)-3,4-dihydroxytetrahydrofuran-2-yl)methoxy)-2-(2-(methylsulfonyl)benzyl)malonic acid]
< 100	< 100	CCOC(=O)C(OC[C@H]1C[C@@H](n2nnc3c(NC[C@@H]4CCOC4)nc(Cl)nc32)[C@H](O)[C@@H]1O)P(=O)(O)O (stereo partly drawn) [Example 88, (1-(((1R,2R,3S,4R)-4-(5-chloro-7-((((S)-tetrahydrofuran-3-yl)methyl)amino)-3H-[1,2,3]triazolo[4,5-d]pyrimidin-3-yl)-2,3-dihydroxycyclopentyl)methoxy)-2-ethoxy-2-oxoethyl)phosphonic Acid]
< 100	< 100	CCOC(=O)C(OC[C@H]1C[C@@H](n2nnc3c(NC[C@H]4CCOC4)nc(Cl)nc32)[C@H](O)[C@@H]1O)P(=O)(O)O (stereo partly drawn) [Example 89, (1-(((1R,2R,3S,4R)-4-(5-chloro-7-((((R)-tetrahydrofuran-3-yl)methyl)amino)-3H-[1,2,3]triazolo[4,5-d]pyrimidin-3-yl)-2,3-dihydroxycyclopentyl)methoxy)-2-ethoxy-2-oxoethyl)phosphonic Acid]
< 100	< 100	CCOC(=O)C(OC[C@H]1C[C@@H](n2nnc3c(N[C@@H]4CCOC4)nc(Cl)nc32)[C@H](O)[C@@H]1O)P(=O)(O)O (stereo partly drawn) [Example 90, (1-(((1R,2R,3S,4R)-4-(5-chloro-7-(((R)-tetrahydrofuran-3-yl)amino)-3H-[1,2,3]triazolo[4,5-d]pyrimidin-3-yl)-2,3-dihydroxycyclopentyl)methoxy)-2-ethoxy-2-oxoethyl)phosphonic Acid]
< 100	< 100	CCOC(=O)C(OC[C@H]1C[C@@H](n2nnc3c(N[C@H]4CCOC4)nc(Cl)nc32)[C@H](O)[C@@H]1O)P(=O)(O)O (stereo partly drawn) [Example 91, (1-(((1R,2R,3S,4R)-4-(5-chloro-7-(((S)-tetrahydrofuran-3-yl)amino)-3H-[1,2,3]triazolo[4,5-d]pyrimidin-3-yl)-2,3-dihydroxycyclopentyl)methoxy)-2-ethoxy-2-oxoethyl)phosphonic Acid]
< 100	< 100	CCOC(=O)C(OC[C@H]1C[C@@H](n2nnc3c(NC4CCCC4)nc(Cl)nc32)[C@H](O)[C@@H]1O)P(=O)(O)O (stereo partly drawn) [Example 92, (1-(((1R,2R,3S,4R)-4-(5-chloro-7-(cyclopentylamino)-3H-[1,2,3]triazolo[4,5-d]pyrimidin-3-yl)-2,3-dihydroxycyclopentyl)methoxy)-2-ethoxy-2-oxoethyl)phosphonic Acid]
< 100	< 100	Nc1nc(Cl)nc2c1ncn2[C@@H]1O[C@H](COC(Cc2ccccn2)(C(=O)O)C(=O)O)[C@@H](O)[C@H]1O [Example 93, 2-(((2R,3S,4R,5R)-5-(6-amino-2-chloro-9H-purin-9-yl)-3,4-dihydroxytetrahydrofuran-2-yl)methoxy)-2-(pyridin-2-ylmethyl)malonic acid]
< 100	< 100	Nc1nc(Cl)nc2c1ncn2[C@@H]1O[C@H](COC(Cc2nccs2)(C(=O)O)C(=O)O)[C@@H](O)[C@H]1O [Example 94, 2-(((2R,3S,4R,5R)-5-(6-amino-2-chloro-9H-purin-9-yl)-3,4-dihydroxytetrahydrofuran-2-yl)methoxy)-2-(thiazol-2-ylmethyl)malonic acid]
< 100	< 100	Nc1nc(Cl)nc2c1ncn2[C@@H]1O[C@H](COC(Cc2cc(F)cc(F)c2)(C(=O)O)C(=O)O)[C@@H](O)[C@H]1O [Example 96, 2-(((2R,3S,4R,5R)-5-(6-amino-2-chloro-9H-purin-9-yl)-3,4-dihydroxytetrahydrofuran-2-yl)methoxy)-2-(3,5-difluorobenzyl)malonic acid]
100 to 1000	100 to 1000	O=C(O)C(Cc1ccc(F)cc1)(OC[C@H]1O[C@@H](n2cnc3c(NC4CCCC4)nc(Cl)nc32)[C@H](O)[C@@H]1O)C(=O)O [Example 97, 2-(((2R,3S,4R,5R)-5-(2-chloro-6-(cyclopentylamino)-9H-purin-9-yl)-3,4-dihydroxytetrahydrofuran-2-yl)methoxy)-2-(4-fluorobenzyl)malonic acid]
< 100	< 100	Nc1nc(Cl)nc2c1ncn2[C@@H]1O[C@H](COC(CC2CC2)(C(=O)O)C(=O)O)[C@@H](O)[C@H]1O [Example 98, 2-(((2R,3S,4R,5R)-5-(6-amino-2-chloro-9H-purin-9-yl)-3,4-dihydroxytetrahydrofuran-2-yl)methoxy)-2-(cyclopropylmethyl)malonic acid]
100 to 1000	100 to 1000	CCOC(=O)C(SC[C@H]1O[C@@H](n2cnc3c(N)nc(Cl)nc32)[C@H](O)[C@@H]1O)P(=O)(O)O (stereo partly drawn) [Example 99, (1-((((2S,3S,4R,5R)-5-(6-amino-2-chloro-9H-purin-9-yl)-3,4-dihydroxytetrahydrofuran-2-yl)methyl)thio)-2-ethoxy-2-oxoethyl)phosphonic Acid]
